Results: publication PMC9288506, “Compounds activating VCP D1 ATPase enhance both autophagic and proteasomal neurotoxic protein clearance” (Nature Communications, 2022)

What was measured:
Experiment in all cases: biochemical
Parameters in all cases: Thermo Fisher in vitro kinase panel, per cent inhibition of kinase activity at 10 uM
DDR2 = DDR2 (Homo sapiens, UniProt Q16832)
Description: (§1) Kinase profiling of SMER28 and analogs SMER28 and analogs were tested at 10 µM in a panel of 123 kinases at ThermoFisher Scientific. Follow-up of selected kinases for SMER28 and analogs was also performed at ThermoFisher Scientific. Data are shown in Supplementary Data 2 and 3. […] An inhibition of PIK3C could induce autophagy, mediated by signaling through the AKT/mTOR axis[45].

AKT2 (PKB beta) = AKT2 (PKB beta) (Homo sapiens, UniProt P31751)
Description: as §1

RPS6KA5 (MSK1) = RPS6KA5 (MSK1) (Homo sapiens, UniProt O75582)
Description: as §1

ALK = ALK (Homo sapiens, UniProt Q9UM73)
Description: as §1

[1] = biological target: MAP3K7/MAP3K7IP1 (TAK1-TAB1) (Homo sapiens, UniProt O43318)
Description: as §1

FLT3 = FLT3 (Homo sapiens, UniProt P36888)
Description: as §1

KIT = KIT (Homo sapiens, UniProt P10721)
Description: as §1

ACVR1B (ALK4) = ACVR1B (ALK4) (Homo sapiens, UniProt P36896)
Description: as §1

DYRK2 = DYRK2 (Homo sapiens, UniProt Q92630)
Description: as §1

PIK3C2A (PI3K-C2 alpha) = PIK3C2A (PI3K-C2 alpha) (Homo sapiens, UniProt O00443)
Description: as §1

INSRR (IRR) = INSRR (IRR) (Homo sapiens, UniProt P14616)
Description: as §1

CDK2/cyclin A = CDK2/cyclin A (Homo sapiens, UniProt P24941)
Description: as §1

IKBKB (IKK beta) = IKBKB (IKK beta) (Homo sapiens, UniProt O14920)
Description: as §1

FER = FER (Homo sapiens, UniProt P16591)
Description: as §1

IRAK4 = IRAK4 (Homo sapiens, UniProt Q9NWZ3)
Description: as §1

PDGFRB (PDGFR beta) = PDGFRB (PDGFR beta) (Homo sapiens, UniProt P09619)
Description: as §1

JAK3 = JAK3 (Homo sapiens, UniProt P52333)
Description: as §1

AURKC (Aurora C) = AURKC (Aurora C) (Homo sapiens, UniProt Q9UQB9)
Description: as §1

SYK = SYK (Homo sapiens, UniProt P43405)
Description: as §1

FES (FPS) = FES (FPS) (Homo sapiens, UniProt P07332)
Description: as §1

RET = RET (Homo sapiens, UniProt P07949)
Description: as §1

MAP3K9 (MLK1) = MAP3K9 (MLK1) (Homo sapiens, UniProt P80192)
Description: as §1

EPHB1 = EPHB1 (Homo sapiens, UniProt P54762)
Description: as §1

FRAP1 (mTOR) = FRAP1 (mTOR) (Homo sapiens, UniProt P42345)
Description: as §1

MAP2K1 (MEK1) = MAP2K1 (MEK1) (Homo sapiens, UniProt Q02750)
Description: as §1

ABL1 = ABL1 (Homo sapiens, UniProt P00519)
Description: as §1

IKBKB (IKK beta), sequence (O14920 whole entry): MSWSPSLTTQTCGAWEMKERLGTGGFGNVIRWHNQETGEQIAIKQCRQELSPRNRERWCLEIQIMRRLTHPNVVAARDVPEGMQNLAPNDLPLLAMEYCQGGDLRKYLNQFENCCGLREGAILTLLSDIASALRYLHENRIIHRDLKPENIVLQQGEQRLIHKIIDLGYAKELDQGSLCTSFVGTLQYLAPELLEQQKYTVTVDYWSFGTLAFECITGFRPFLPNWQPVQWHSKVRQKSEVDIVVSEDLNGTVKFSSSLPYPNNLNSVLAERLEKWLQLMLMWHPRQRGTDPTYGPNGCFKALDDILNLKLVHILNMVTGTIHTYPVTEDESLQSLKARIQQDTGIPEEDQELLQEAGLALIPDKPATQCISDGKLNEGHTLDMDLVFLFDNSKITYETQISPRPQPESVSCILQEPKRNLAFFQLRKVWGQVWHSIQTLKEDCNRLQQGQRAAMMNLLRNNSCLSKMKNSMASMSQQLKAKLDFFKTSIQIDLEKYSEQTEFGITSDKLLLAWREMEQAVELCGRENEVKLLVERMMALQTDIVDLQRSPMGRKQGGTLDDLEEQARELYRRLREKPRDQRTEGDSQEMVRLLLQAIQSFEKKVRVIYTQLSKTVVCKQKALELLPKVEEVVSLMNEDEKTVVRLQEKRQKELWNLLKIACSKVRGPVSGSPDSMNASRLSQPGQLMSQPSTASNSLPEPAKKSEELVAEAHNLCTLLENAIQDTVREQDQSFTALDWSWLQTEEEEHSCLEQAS
PIK3C2A (PI3K-C2 alpha), sequence (O00443 whole entry): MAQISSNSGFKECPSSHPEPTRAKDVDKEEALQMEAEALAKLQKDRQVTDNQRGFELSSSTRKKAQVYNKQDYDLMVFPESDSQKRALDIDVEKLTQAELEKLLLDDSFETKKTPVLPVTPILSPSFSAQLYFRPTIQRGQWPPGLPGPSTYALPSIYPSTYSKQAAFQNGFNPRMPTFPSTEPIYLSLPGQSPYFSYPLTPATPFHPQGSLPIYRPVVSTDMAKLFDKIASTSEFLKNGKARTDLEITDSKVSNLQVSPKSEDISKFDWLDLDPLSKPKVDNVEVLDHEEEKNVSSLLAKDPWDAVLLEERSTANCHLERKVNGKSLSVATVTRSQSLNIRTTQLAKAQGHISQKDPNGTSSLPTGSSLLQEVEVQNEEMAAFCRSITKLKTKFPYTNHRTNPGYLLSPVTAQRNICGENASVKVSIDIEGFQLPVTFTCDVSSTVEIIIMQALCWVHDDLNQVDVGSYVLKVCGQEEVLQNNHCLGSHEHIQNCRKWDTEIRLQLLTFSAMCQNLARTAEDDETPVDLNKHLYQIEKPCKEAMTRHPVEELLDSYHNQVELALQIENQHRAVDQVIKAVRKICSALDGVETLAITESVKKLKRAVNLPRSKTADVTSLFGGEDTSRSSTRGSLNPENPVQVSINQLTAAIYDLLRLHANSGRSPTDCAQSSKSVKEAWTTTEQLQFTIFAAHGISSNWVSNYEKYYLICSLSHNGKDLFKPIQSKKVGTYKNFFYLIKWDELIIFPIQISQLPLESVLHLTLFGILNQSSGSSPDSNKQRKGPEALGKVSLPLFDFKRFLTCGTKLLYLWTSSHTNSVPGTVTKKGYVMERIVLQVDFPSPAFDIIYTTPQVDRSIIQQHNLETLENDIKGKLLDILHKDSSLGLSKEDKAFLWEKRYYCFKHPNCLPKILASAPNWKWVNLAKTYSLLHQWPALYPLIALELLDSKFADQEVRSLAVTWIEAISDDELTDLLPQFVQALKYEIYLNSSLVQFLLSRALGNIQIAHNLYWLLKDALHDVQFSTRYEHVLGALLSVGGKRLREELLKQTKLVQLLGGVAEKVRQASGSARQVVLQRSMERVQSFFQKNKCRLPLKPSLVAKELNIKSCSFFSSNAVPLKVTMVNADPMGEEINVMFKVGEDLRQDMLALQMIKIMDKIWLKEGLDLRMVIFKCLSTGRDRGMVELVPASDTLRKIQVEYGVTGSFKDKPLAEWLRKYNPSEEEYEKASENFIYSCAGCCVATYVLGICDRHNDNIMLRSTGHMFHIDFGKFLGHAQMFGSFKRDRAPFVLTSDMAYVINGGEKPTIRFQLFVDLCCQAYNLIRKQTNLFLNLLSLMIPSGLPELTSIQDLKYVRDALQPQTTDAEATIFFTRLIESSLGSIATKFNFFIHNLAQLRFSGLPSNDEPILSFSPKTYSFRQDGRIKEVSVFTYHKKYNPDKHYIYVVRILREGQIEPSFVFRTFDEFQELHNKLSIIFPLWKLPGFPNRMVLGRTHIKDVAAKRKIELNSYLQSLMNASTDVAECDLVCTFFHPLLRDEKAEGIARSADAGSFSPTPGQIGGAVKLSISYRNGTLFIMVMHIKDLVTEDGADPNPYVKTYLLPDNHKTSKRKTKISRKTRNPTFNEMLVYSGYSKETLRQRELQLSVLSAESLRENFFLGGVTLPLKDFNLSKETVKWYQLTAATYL
DYRK2, sequence (Q92630 whole entry): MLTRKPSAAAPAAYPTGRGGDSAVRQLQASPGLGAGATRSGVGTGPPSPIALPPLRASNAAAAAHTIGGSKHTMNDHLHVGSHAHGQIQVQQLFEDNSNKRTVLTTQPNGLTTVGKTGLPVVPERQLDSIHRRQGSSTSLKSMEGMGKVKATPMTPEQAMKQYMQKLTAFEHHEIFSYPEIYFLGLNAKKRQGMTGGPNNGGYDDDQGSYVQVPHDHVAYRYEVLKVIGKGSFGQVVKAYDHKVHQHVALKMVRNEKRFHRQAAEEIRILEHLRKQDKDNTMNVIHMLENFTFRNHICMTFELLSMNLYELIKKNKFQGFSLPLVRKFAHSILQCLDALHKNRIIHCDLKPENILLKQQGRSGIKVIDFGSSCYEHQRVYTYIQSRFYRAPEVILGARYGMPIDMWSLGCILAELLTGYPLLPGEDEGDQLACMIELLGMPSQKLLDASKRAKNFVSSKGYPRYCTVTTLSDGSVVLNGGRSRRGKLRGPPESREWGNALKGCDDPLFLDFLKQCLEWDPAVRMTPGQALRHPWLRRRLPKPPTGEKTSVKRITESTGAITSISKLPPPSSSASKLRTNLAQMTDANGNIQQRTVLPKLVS
KIT, sequence (P10721 whole entry): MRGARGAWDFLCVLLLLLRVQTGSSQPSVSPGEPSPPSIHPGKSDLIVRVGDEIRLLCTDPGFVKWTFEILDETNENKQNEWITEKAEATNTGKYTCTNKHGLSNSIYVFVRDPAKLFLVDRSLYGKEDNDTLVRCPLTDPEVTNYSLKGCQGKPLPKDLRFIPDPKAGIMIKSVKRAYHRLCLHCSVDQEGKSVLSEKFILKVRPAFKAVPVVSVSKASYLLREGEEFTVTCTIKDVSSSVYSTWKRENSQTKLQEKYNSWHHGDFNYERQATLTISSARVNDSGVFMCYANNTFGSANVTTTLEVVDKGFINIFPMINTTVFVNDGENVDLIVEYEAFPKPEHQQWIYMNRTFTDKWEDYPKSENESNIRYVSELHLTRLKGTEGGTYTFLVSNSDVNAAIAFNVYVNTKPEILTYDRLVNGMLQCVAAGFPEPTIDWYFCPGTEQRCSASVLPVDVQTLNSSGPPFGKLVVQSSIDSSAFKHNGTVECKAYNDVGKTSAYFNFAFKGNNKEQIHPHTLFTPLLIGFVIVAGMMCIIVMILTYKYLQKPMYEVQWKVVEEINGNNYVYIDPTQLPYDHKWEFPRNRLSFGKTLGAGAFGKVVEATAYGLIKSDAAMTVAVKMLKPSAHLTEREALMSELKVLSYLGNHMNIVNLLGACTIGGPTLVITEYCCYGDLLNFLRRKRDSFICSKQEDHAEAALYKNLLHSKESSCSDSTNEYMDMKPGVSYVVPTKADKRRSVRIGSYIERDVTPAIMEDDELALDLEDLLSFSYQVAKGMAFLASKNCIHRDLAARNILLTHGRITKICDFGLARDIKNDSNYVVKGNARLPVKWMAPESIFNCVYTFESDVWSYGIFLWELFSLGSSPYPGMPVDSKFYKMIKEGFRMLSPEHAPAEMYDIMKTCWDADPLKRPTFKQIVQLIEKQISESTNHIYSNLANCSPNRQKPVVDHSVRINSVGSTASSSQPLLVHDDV
AKT2 (PKB beta), sequence (P31751 whole entry): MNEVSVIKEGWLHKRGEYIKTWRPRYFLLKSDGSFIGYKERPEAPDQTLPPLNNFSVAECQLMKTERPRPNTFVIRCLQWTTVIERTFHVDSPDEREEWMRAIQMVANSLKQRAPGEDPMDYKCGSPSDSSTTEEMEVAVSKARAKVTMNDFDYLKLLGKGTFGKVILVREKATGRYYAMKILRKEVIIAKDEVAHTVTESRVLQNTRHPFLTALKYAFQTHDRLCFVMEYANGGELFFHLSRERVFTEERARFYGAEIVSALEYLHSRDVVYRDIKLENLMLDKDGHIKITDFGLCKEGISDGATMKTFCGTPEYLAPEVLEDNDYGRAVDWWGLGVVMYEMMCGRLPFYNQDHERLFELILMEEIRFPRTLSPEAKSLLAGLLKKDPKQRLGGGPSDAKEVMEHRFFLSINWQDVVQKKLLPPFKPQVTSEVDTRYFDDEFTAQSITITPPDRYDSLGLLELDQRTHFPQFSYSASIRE
ACVR1B (ALK4), sequence (P36896 whole entry): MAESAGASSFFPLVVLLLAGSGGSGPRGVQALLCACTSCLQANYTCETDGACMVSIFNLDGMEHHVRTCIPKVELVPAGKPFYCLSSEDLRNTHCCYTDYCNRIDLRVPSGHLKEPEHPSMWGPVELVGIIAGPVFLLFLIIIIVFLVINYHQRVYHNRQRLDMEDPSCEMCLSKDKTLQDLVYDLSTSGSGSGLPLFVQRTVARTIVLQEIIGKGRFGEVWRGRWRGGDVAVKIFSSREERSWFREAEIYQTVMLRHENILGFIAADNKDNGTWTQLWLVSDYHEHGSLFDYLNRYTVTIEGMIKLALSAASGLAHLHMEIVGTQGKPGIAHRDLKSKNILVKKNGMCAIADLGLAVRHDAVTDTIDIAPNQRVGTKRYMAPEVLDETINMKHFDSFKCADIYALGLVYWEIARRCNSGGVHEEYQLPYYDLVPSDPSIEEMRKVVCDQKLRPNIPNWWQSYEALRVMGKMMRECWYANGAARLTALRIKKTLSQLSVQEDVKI

C=CCNc1ncnc2ccc(Br)cc12 [SMER28]
inhibition at 10 µM (DDR2): 0%
inhibition at 10 µM (AKT2 (PKB beta)): -8%
inhibition at 10 µM (RPS6KA5 (MSK1)): -3%
inhibition at 10 µM (ALK): 25%
inhibition at 10 µM [1]: 34%
inhibition at 10 µM (FLT3): 40%
inhibition at 10 µM (KIT): 25%
inhibition at 10 µM (ACVR1B (ALK4)): -19%
inhibition at 10 µM (DYRK2): 67%
inhibition at 10 µM (PIK3C2A (PI3K-C2 alpha)): 22%
inhibition at 10 µM (INSRR (IRR)): 5%
inhibition at 10 µM (CDK2/cyclin A): 15%
inhibition at 10 µM (IKBKB (IKK beta)): 17%
inhibition at 10 µM (FER): 16%
inhibition at 10 µM (IRAK4): 68%
inhibition at 10 µM (PDGFRB (PDGFR beta)): 8%
inhibition at 10 µM (JAK3): 14%
inhibition at 10 µM (AURKC (Aurora C)): -6%
inhibition at 10 µM (SYK): 8%
inhibition at 10 µM (FES (FPS)): 8%
inhibition at 10 µM (RET): 25%
inhibition at 10 µM (MAP3K9 (MLK1)): -2%
inhibition at 10 µM (EPHB1): 6%
inhibition at 10 µM (FRAP1 (mTOR)): -7%
inhibition at 10 µM (MAP2K1 (MEK1)): 3%
inhibition at 10 µM (ABL1): 11%
